Laboratory results published in US20200060276A1, “THIAZOLE COMPOUND AND HERBICIDE” (OAT Agrio Co., Ltd., priority 2017, published 2020).

How the values were obtained:
Assay type in all cases: in vivo
[1] = tested on: Echinochloa crus-galli (L.) P. Beauv. var. formosensis Ohwi; assay: Test for Herbicidal Effect in Flooding Treatment (#1), ECHDG; settings: for ECHDG #1 herbicidal effect (growth inhibition grade): flooding treatment at seeding, dose 2 kg/ha, visual observation on day 21; for ECHDG #1 herbicidal effect (growth inhibition rating 0-5): flooding treatment #1
Experimental: (§1) (#1) Test for Herbicidal Effect in Flooding Treatment: Styrol cups each having an opening diameter of 8 cm (about 52 cm^2) were respectively filled with soil (45 ml) which had been passed through a sieve (2 mm). Water (about 115 ml) was mixed with the soil such that the soil was flooded. After the soil stood still for 24 hours, Monochoria vaginalis, Echinochloa crus-galli (L.) P. Beauv. var. formosensis Ohwi, Cyperus difformis (umbrella sedge), and Scirpus juncoides were seeded. Each of the compounds of the present invention was dissolved in acetone, and the obtained product was then diluted with water containing Tween 80®. Each of the resultant chemical solutions was dropped on the entire surface of an associated one of treatment sections, so that each section was treated with 1 ml of the respective chemical solution (a dose of 2 kg/ha). After the treatment, the plants were grown in a glasshouse. On day 21, a survey was conducted on the herbicidal activity by visual observation, and evaluation was made according to the following criteria. 0: Growth inhibition effect is less than 10%. 1: Growth inhibition effect is equal to or greater than 10%, and less than 30%. 2; Growth inhibition effect is equal to or greater than 30%, and less than 50%. 3: Growth inhibition effect equal to or greater than 50%, and less than 70%. 4: Growth inhibition effect is equal to or greater than 70%, and less than 90%. 5: Growth inhibition effect is equal to or greater than 90%, or complete withering is achieved. ECHDG=Echinochloa crus-galli (L.) P. Beauv. var. formosensis Ohwi, MONVA=Monochoria vaginalis, SCIJU=Scirpus juncoides, CYMIC=Cyperus microiria.

[2] = tested on: Scirpus juncoides; assay: Test for Herbicidal Effect in Flooding Treatment (#1), SCIJU; settings: for SCIJU #1 herbicidal effect (growth inhibition grade): flooding treatment at seeding, dose 2 kg/ha, visual observation on day 21; for SCIJU #1 herbicidal effect (growth inhibition rating 0-5): flooding treatment #1
Experimental: as §1

[3] = tested on: Echinochloa crus-galli (L.) P. Beauv. var. formosensis Ohwi; assay: Test for Herbicidal Effect in Flooding Treatment (#2), ECHDG at 2-2.5 leaf stage; settings: for ECHDG (2-2.5L) #2 herbicidal effect (growth inhibition grade): flooding treatment at 2-2.5 leaf stage, dose 0.2 kg/ha, visual observation on day 21; for ECHDG (2-2.5L) #2 herbicidal effect (growth inhibition rating 0-5): flooding treatment #2, 2-2.5 leaf stage
Experimental: (#2) Test for Herbicidal Effect in Flooding Treatment: Styrol cups each having an opening diameter of 13 cm (about 130 cm^2) were respectively filled with muddy soil (500 ml). Water (about 300 ml) was mixed with the soil such that the soil was flooded. After the soil stood still for 24 hours, Echinochloa crus-galli (L.) P. Beauv. var. formosensis Ohwi was seeded. When the Echinochloa crus-galli (L.) P. Beauv. var. formosensis Ohwi grew to reach 2-2.5 leaf stage, chemical solutions were dropped on the entire surface of treatment sections, so that each section is treated with 1 ml of the respective chemical solution (a dose of 0.2 kg/ha). Each of the chemical solutions was prepared by dissolving associated one of the compounds of the present invention in acetone, followed by dilution with water containing Tween 80 g. After the treatment, the plants were grown in a glasshouse. On day 21, a survey was conducted on the herbicidal activity by visual observation, and evaluation was made according to the following criteria. 0: Growth inhibition effect is less than 10%. 1: Growth inhibition effect is equal to or greater than 10%, and less than 30%. 2; Growth inhibition effect is equal to or greater than 30%, and less than 50%. 3: Growth inhibition effect equal to or greater than 50%, and less than 70%. 4: Growth inhibition effect is equal to or greater than 70%, and less than 90%. 5: Growth inhibition effect is equal to or greater than 90%, or complete withering is achieved. ECHDG=Echinochloa crus-galli (L.) P. Beauv. var. formosensis Ohwi, MONVA=Monochoria vaginalis, SCIJU=Scirpus juncoides, CYMIC=Cyperus microiria. The herbicidal activity of the following comparative compounds A and B (the compounds disclosed Japanese Unexamined Patent Publication No. 2003-096059) were evaluated in a manner pursuant to Test Example 1. (#2).

SMILES	ECHDG #1 herbicidal effect (growth inhibition grade) [1]	SCIJU #1 herbicidal effect (growth inhibition grade) [2]	ECHDG (2-2.5L) #2 herbicidal effect (growth inhibition grade) [3]	ECHDG #1 herbicidal effect (growth inhibition rating 0-5) [1]	SCIJU #1 herbicidal effect (growth inhibition rating 0-5) [2]	ECHDG (2-2.5L) #2 herbicidal effect (growth inhibition rating 0-5) [3]
O=S(=O)(Cc1ccccc1OC(F)F)c1ncc(Br)s1 [Compound 1C-152]	5 (Growth inhibition effect is equal to or greater than 90%, or complete withering is achieved)	5 (Growth inhibition effect is equal to or greater than 90%, or complete withering is achieved)	5 (Growth inhibition effect is equal to or greater than 90%, or complete withering is achieved)	–	–	–
O=S(=O)(Cc1ccc(F)c(Oc2ccccc2)c1)c1ncc(Cl)s1 [Compound 1C-86]	5 (Growth inhibition effect is equal to or greater than 90%, or complete withering is achieved)	–	1 (Growth inhibition effect is equal to or greater than 10%, and less than 30%)	–	–	–
O=C(CCl)Oc1cccc(F)c1CS(=O)(=O)c1ncc(Cl)s1 [Compound 1C-173]	–	4 (Growth inhibition effect is equal to or greater than 70%, and less than 90%)	–	–	–	–
O=S(=O)(Cc1c(F)cccc1OCF)c1ncc(Cl)s1 [Compound 1C-179]	5 (Growth inhibition effect is equal to or greater than 90%, or complete withering is achieved)	5 (Growth inhibition effect is equal to or greater than 90%, or complete withering is achieved)	5 (Growth inhibition effect is equal to or greater than 90%, or complete withering is achieved)	–	–	–
O=S(=O)(Cc1c(F)cccc1OC(F)(F)F)c1ncc(Br)s1 [Compound 1C-158]	5 (Growth inhibition effect is equal to or greater than 90%, or complete withering is achieved)	5 (Growth inhibition effect is equal to or greater than 90%, or complete withering is achieved)	5 (Growth inhibition effect is equal to or greater than 90%, or complete withering is achieved)	–	–	–
COCOc1cccc(F)c1CS(=O)(=O)c1ncc(Cl)s1 [Compound 1C-37]	5 (Growth inhibition effect is equal to or greater than 90%, or complete withering is achieved)	5 (Growth inhibition effect is equal to or greater than 90%, or complete withering is achieved)	5 (Growth inhibition effect is equal to or greater than 90%, or complete withering is achieved)	–	–	–
O=S(=O)(Cc1ccc(OCc2ccccc2)cc1)c1ncc(Cl)s1 [Compound 1C-120]	5 (Growth inhibition effect is equal to or greater than 90%, or complete withering is achieved)	4 (Growth inhibition effect is equal to or greater than 70%, and less than 90%)	2 (Growth inhibition effect is equal to or greater than 30%, and less than 50%)	–	–	–
[O-][S+](Cc1c(OCC(F)(F)F)cccc1C(F)(F)F)c1ncc(Cl)s1 (stereo not shown) [Compound 1B-11]	–	–	–	5 (Growth inhibition effect is equal to or greater than 90%, or complete withering is achieved)	5 (Growth inhibition effect is equal to or greater than 90%, or complete withering is achieved)	5 (Growth inhibition effect is equal to or greater than 90%, or complete withering is achieved)
O=C(O)COc1cccc(F)c1CS(=O)(=O)c1ncc(Cl)s1 [Compound 1C-183]	5 (Growth inhibition effect is equal to or greater than 90%, or complete withering is achieved)	5 (Growth inhibition effect is equal to or greater than 90%, or complete withering is achieved)	3 (Growth inhibition effect equal to or greater than 50%, and less than 70%)	–	–	–
[O-][S+](Cc1c(F)cccc1OC(F)(F)F)c1ncc(Cl)s1 (stereo not shown) [Compound 1B-5]	–	–	–	5 (Growth inhibition effect is equal to or greater than 90%, or complete withering is achieved)	5 (Growth inhibition effect is equal to or greater than 90%, or complete withering is achieved)	5 (Growth inhibition effect is equal to or greater than 90%, or complete withering is achieved)
[O-][S+](Cc1c(OC(F)(F)C(F)(F)F)cccc1C(F)(F)F)c1ncc(Br)s1 (stereo not shown) [Compound 1B-25]	–	–	–	5 (Growth inhibition effect is equal to or greater than 90%, or complete withering is achieved)	5 (Growth inhibition effect is equal to or greater than 90%, or complete withering is achieved)	5 (Growth inhibition effect is equal to or greater than 90%, or complete withering is achieved)
O=S(=O)(Cc1c(OCC(F)(F)F)cccc1C(F)(F)F)c1ncc(Cl)s1 [Compound 1C-56]	5 (Growth inhibition effect is equal to or greater than 90%, or complete withering is achieved)	5 (Growth inhibition effect is equal to or greater than 90%, or complete withering is achieved)	5 (Growth inhibition effect is equal to or greater than 90%, or complete withering is achieved)	–	–	–
[O-][S+](Cc1ccccc1OC(F)(F)C(F)F)c1ncc(Br)s1 (stereo not shown) [Compound 1B-23]	–	–	–	5 (Growth inhibition effect is equal to or greater than 90%, or complete withering is achieved)	–	4 (Growth inhibition effect is equal to or greater than 70%, and less than 90%)
O=S(=O)(Cc1ccccc1OC(F)(F)C(F)F)c1ncc(Br)s1 [Compound 1C-163]	5 (Growth inhibition effect is equal to or greater than 90%, or complete withering is achieved)	5 (Growth inhibition effect is equal to or greater than 90%, or complete withering is achieved)	–	–	–	–
CCOC(=O)C(F)Oc1cccc(F)c1CS(=O)(=O)c1ncc(Cl)s1 (stereo not shown) [Compound 1C-182]	5 (Growth inhibition effect is equal to or greater than 90%, or complete withering is achieved)	3 (Growth inhibition effect equal to or greater than 50%, and less than 70%)	–	–	–	–
CCS(=O)(=O)c1cccc(F)c1C[S+]([O-])c1ncc(Cl)s1 (stereo not shown) [Compound 1B-28]	–	–	–	5 (Growth inhibition effect is equal to or greater than 90%, or complete withering is achieved)	4 (Growth inhibition effect is equal to or greater than 70%, and less than 90%)	–
CC(C)(C)[Si](C)(C)Oc1cccc(F)c1CS(=O)(=O)c1ncc(Cl)s1 [Compound 1C-178]	5 (Growth inhibition effect is equal to or greater than 90%, or complete withering is achieved)	4 (Growth inhibition effect is equal to or greater than 70%, and less than 90%)	–	–	–	–
[O-][S+](Cc1c(Cl)cccc1OC(F)(F)F)c1ncc(Br)s1 (stereo not shown) [Compound 1B-22]	–	–	–	–	5 (Growth inhibition effect is equal to or greater than 90%, or complete withering is achieved)	5 (Growth inhibition effect is equal to or greater than 90%, or complete withering is achieved)
COC(=O)COc1cccc(F)c1CS(=O)(=O)c1ncc(Cl)s1 [Compound 1C-181]	5 (Growth inhibition effect is equal to or greater than 90%, or complete withering is achieved)	4 (Growth inhibition effect is equal to or greater than 70%, and less than 90%)	–	–	–	–
COc1ccc(CS(=O)(=O)c2ncc(Cl)s2)c(F)c1 [Compound 1C-1]	5 (Growth inhibition effect is equal to or greater than 90%, or complete withering is achieved)	4 (Growth inhibition effect is equal to or greater than 70%, and less than 90%)	–	–	–	–
